Test results reported in US20250360235A1, “RADI[…] AND METHOD FOR RADIOLABELLING” (Telix Innovations SA, priority 2024, published 2025).

Test: Radiochemical purity by iTLC over time after radiolabelling
Format: physicochemical
Protocol: Table 1 to Table 5 show the results of various radiolabelling experiments on radiochemical purity and the chelation yield. The radiolabelling experiments in the tables are carried out as described in: • Example 1 for when the gallium-68 source is GE Liquid target generator and EZAG GalliaPharm generator; • Example 2 for when the gallium-68 source is IRE Galli Eo generator; • Example 3 for when the gallium-68 source is GE solid target generator;
However, the experiments were carried out with the amount of ascorbic acid as indicated in the Tables 1 to 5, and the activity as indicated in the Tables 1 to 5. Radiochemical purities were measured at various times (T0, T1, T4, T6) after the radiolabelled experiments have been conducted.
The kits of Example 1, Example 2 or Example 3, with amounts of ascorbic acid as set out in Table 7 were used in the experiments for the ascorbic acid bracketing matrix. Three strengths of [^68Ga]Ga-PSMA-11 will be tested, i.e. 50 mCi/ml, 7 mCi/ml and 1 mCi/ml. Radiochemical purity was determined at different time points (TO, T1, T4 or T6), as set out in Table 7.

[1] = 1 mg ascorbic acid, 58.7-71.1 mCi, 7.47-8.99 mCi/mL, GE Liquid target, average of 3, T0
[2] = 1 mg ascorbic acid, 58.7-71.1 mCi, 7.47-8.99 mCi/mL, GE Liquid target, average of 3, T4 (4 h)
[3] = 1 mg ascorbic acid, 58.7-71.1 mCi, 7.47-8.99 mCi/mL, GE Liquid target, n=3, T0
[4] = 1 mg ascorbic acid, 58.7-71.1 mCi, 7.47-8.99 mCi/mL, GE Liquid target, n=3, T4 (4 h)
[5] = 2.5 mg ascorbic acid, 49.9-76.9 mCi, 6.31-9.72 mCi/mL, GE Liquid target, average of 3, T0
[6] = 2.5 mg ascorbic acid, 49.9-76.9 mCi, 6.31-9.72 mCi/mL, GE Liquid target, average of 3, T4 (4 h)
[7] = 2.5 mg ascorbic acid, 49.9-76.9 mCi, 6.31-9.72 mCi/mL, GE Liquid target, n=3, T0
[8] = 2.5 mg ascorbic acid, 49.9-76.9 mCi, 6.31-9.72 mCi/mL, GE Liquid target, n=3, T4 (4 h)
[9] = 5 mg ascorbic acid, 60-69.9 mCi, 7.61-8.81 mCi/mL, 3 × GE Liquid Target, 3 × EZAG GalliaPharm, average of 6, T0
[10] = 5 mg ascorbic acid, 60-69.9 mCi, 7.61-8.81 mCi/mL, 3 × GE Liquid Target, 3 × EZAG GalliaPharm, average of 6, T4 (4 h)
[11] = 5 mg ascorbic acid, 60-69.9 mCi, 7.61-8.81 mCi/mL, 3 × GE Liquid Target, 3 × EZAG GalliaPharm, n=6, T0
[12] = 5 mg ascorbic acid, 60-69.9 mCi, 7.61-8.81 mCi/mL, 3 × GE Liquid Target, 3 × EZAG GalliaPharm, n=6, T4 (4 h)
[13] = 10 mg ascorbic acid, 458-500 mCi, 43.4-47.3 mCi/mL, GE Solid Target, average of 3, T0
[14] = 10 mg ascorbic acid, 458-500 mCi, 43.4-47.3 mCi/mL, GE Solid Target, average of 3, T4 (4 h)
[15] = 10 mg ascorbic acid, 458-500 mCi, 43.4-47.3 mCi/mL, GE Solid Target, n=3, T0
[16] = 10 mg ascorbic acid, 458-500 mCi, 43.4-47.3 mCi/mL, GE Solid Target, n=3, T4 (4 h)
[17] = 10 mg ascorbic acid, 514-520 mCi, 49.0-66.1 mCi/mL, GE Solid Target, average of 3, T0
[18] = 10 mg ascorbic acid, 514-520 mCi, 49.0-66.1 mCi/mL, GE Solid Target, average of 3, T6 (6 h)
[19] = 10 mg ascorbic acid, 514-520 mCi, 49.0-66.1 mCi/mL, GE Solid Target, n=3, T0
[20] = 10 mg ascorbic acid, 514-520 mCi, 49.0-66.1 mCi/mL, GE Solid Target, n=3, T6 (6 h)

O=C([O-])CN(CCN(CC(=O)[O-])Cc1cc(CCC(=O)NCCCCCC(=O)NCCCC[C@H](NC(=O)N[C@@H](CCC(=O)O)C(=O)O)C(=O)O)ccc1[O-])Cc1cc(CCC(=O)O)ccc1[O-].[68Ga+3].[OH3+] [[^68Ga]PSMA-11, gallium-68 radiolabelled Glu-urea-Lys-HBED-CC (gozetotide or PSMA-11)]
Radiochemical Purity (iTLC) Free and Colloidal Ga-68 (%) [1]: 0% | Radiochemical Purity (iTLC) Ga-68 PSMA-11 (%) [1]: 100% | Radiochemical Purity (iTLC) Free and Colloidal Ga-68 (%) [2]: 0% | Radiochemical Purity (iTLC) Ga-68 PSMA-11 (%) [2]: 100% | Radiochemical Purity (iTLC) Free and Colloidal Ga-68 (%) [3]: C (C = conforms to specifications) | Radiochemical Purity (iTLC) Ga-68 PSMA-11 (%) [3]: C (C = conforms to specifications) | Radiochemical Purity (iTLC) Free and Colloidal Ga-68 (%) [4]: C (C = conforms to specifications) | Radiochemical Purity (iTLC) Ga-68 PSMA-11 (%) [4]: C (C = conforms to specifications) | Radiochemical Purity (iTLC) Free and Colloidal Ga-68 (%) [5]: 0% | Radiochemical Purity (iTLC) Ga-68 PSMA-11 (%) [5]: 100% | Radiochemical Purity (iTLC) Free and Colloidal Ga-68 (%) [6]: 0% | Radiochemical Purity (iTLC) Ga-68 PSMA-11 (%) [6]: 100% | Radiochemical Purity (iTLC) Free and Colloidal Ga-68 (%) [7]: C (C = conforms to specifications) | Radiochemical Purity (iTLC) Ga-68 PSMA-11 (%) [7]: C (C = conforms to specifications) | Radiochemical Purity (iTLC) Free and Colloidal Ga-68 (%) [8]: C (C = conforms to specifications) | Radiochemical Purity (iTLC) Ga-68 PSMA-11 (%) [8]: C (C = conforms to specifications) | Radiochemical Purity (iTLC) Free and Colloidal Ga-68 (%) [9]: 0% | Radiochemical Purity (iTLC) Ga-68 PSMA-11 (%) [9]: 100% | Radiochemical Purity (iTLC) Free and Colloidal Ga-68 (%) [10]: 0% | Radiochemical Purity (iTLC) Ga-68 PSMA-11 (%) [10]: 100% | Radiochemical Purity (iTLC) Free and Colloidal Ga-68 (%) [11]: C (C = conforms to specifications) | Radiochemical Purity (iTLC) Ga-68 PSMA-11 (%) [11]: C (C = conforms to specifications) | Radiochemical Purity (iTLC) Free and Colloidal Ga-68 (%) [12]: C (C = conforms to specifications) | Radiochemical Purity (iTLC) Ga-68 PSMA-11 (%) [12]: C (C = conforms to specifications) | Radiochemical Purity (iTLC) Free and Colloidal Ga-68 (%) [13]: 0% | Radiochemical Purity (iTLC) Ga-68 PSMA-11 (%) [13]: 100% | Radiochemical Purity (iTLC) Free and Colloidal Ga-68 (%) [14]: 0% | Radiochemical Purity (iTLC) Ga-68 PSMA-11 (%) [14]: 100% | Radiochemical Purity (iTLC) Free and Colloidal Ga-68 (%) [15]: C (C = conforms to specifications) | Radiochemical Purity (iTLC) Ga-68 PSMA-11 (%) [15]: C (C = conforms to specifications) | Radiochemical Purity (iTLC) Free and Colloidal Ga-68 (%) [16]: C (C = conforms to specifications) | Radiochemical Purity (iTLC) Ga-68 PSMA-11 (%) [16]: C (C = conforms to specifications) | Radiochemical Purity (iTLC) Free and Colloidal Ga-68 (%) [17]: 0% | Radiochemical Purity (iTLC) Ga-68 PSMA-11 (%) [17]: 100% | Radiochemical Purity (iTLC) Free and Colloidal Ga-68 (%) [18]: 0% | Radiochemical Purity (iTLC) Ga-68 PSMA-11 (%) [18]: 100% | Radiochemical Purity (iTLC) Free and Colloidal Ga-68 (%) [19]: C (C = conforms to specifications) | Radiochemical Purity (iTLC) Ga-68 PSMA-11 (%) [19]: C (C = conforms to specifications) | Radiochemical Purity (iTLC) Free and Colloidal Ga-68 (%) [20]: C (C = conforms to specifications) | Radiochemical Purity (iTLC) Ga-68 PSMA-11 (%) [20]: C (C = conforms to specifications) | Radiochemical Purity (iTLC) Free and Colloidal Ga-68 (%) (15 mg ascorbic acid, 10.0-18.4 mCi, 0.95-1.77 mCi/mL, 1 × EZAG GalliaPharm, 2 × IRE Galli Eo, average of 3, T0): 0%
